Data set [1] in a line: Circular dichroism spectroscopy, helical residues per peptide chain. In kind it is physicochemical. The following applies: calculated from [θ]222. The gist of the method:
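CD spectra recorded at 20 °C, four scans averaged; peptide concentration checked by A280 with the single-Trp extinction coefficient of 5700 M^−1. Helical residues per chain calculated as −[θ]222×30/28,000 from mean residue ellipticity at 222 nm.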

The target in a further data set is T1, PTHR-delNt (Homo sapiens, UniProt Q03431, DEL24-181).
T1 construct: expressed in transfected cells; host or cells: COS-7 cells, transient co-transfection; membranes prepared
T1 sequence (Q03431 with tags, fused parts or gaps DEL24-181): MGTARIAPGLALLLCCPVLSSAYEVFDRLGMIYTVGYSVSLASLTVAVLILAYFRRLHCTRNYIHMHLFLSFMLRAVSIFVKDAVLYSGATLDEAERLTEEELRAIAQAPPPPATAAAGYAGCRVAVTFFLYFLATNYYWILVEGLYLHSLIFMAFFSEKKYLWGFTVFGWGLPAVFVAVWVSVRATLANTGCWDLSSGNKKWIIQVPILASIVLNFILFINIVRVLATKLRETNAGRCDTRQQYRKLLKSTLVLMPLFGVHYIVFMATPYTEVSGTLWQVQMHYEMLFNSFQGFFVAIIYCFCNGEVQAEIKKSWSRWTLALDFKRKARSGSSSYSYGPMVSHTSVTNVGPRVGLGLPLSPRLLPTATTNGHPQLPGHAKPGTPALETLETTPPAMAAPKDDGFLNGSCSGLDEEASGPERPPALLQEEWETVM
In words: Competition binding in COS-7 cell membranes with 125I-[Aib1,3,M]PTH(1-15)NH2 tracer. The following applies: COS-7 membranes cotransfected with negative-dominant Gαs, read-out: PTHR-delNT (COS-7) IC50. In a few lines:
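Membranes (20 µg/well) from COS-7 cells co-transfected with human PTHR lacking residues 24–181 plus dominant-negative Gαs, incubated 90 min at 21 °C with 125I-[Aib1,3,M]PTH(1-15)NH2 and unlabeled peptide (3×10^−9 to 1×10^−5 M), then filtered and gamma-counted. Non-specific binding with 1×10^−6 M [Aib1,3,M]PTH(1-15)NH2; IC50 by four-parameter logistic fit, extrapolated to reference maximal inhibition where incomplete.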

Where [2] appears, read: [Ala1,Arg19]hPTH(1-31)NH2 analogs.

Where two headings read alike, the source gives them in different places. Where a SMILES comes first, the peptide text is derived from it. Where no end group is shown, it is not given here. [ ]: non-standard residue; d: D form. Cha = N[C@@H](CC1CCCCC1)C(=O)O

Regarding `CC[C@H](C)[C@H](NC(=O)[C@H](CCC(=O)O)NC(=O)[C@H](CO)NC(=O)[C@@H](NC(=O)[C@H](C)N)C(C)C)C(=O)N[C@@H](CCC(N)=O)C(=O)N[C@@H](CC(C)C)C(=O)N[C@@H](CCSC)C(=O)N[C@@H](Cc1c[nH]cn1)C(=O)N[C@@H](CC(N)=O)C(=O)N[C@@H](CC(C)C)C(=O)NCC(=O)N[C@@H](CCCCN)C(=O)N[C@@H](Cc1c[nH]cn1)C(=O)N[C@@H](CC(C)C)C(=O)N[C@@H](CC(N)=O)C(=O)N[C@@H](CO)C(=O)N[C@@H](CCSC)C(=O)N[C@@H](CCCNC(=N)N)C(=O)N[C@@H](CCCNC(=N)N)C(=O)N[C@H](C(=O)N[C@@H](CCC(=O)O)C(=O)N[C@@H](Cc1c[nH]c2ccccc12)C(=O)N[C@@H](CC(C)C)C(=O)N[C@@H](CCCNC(=N)N)C(=O)N[C@@H](CCCCN)C(=O)N[C@@H](CCCCN)C(=O)N[C@@H](CC(C)C)C(=O)N[C@@H](CCC(N)=O)C(=O)N[C@@H](CC(=O)O)C(=O)N[C@@H](CC1CCCCC1)C(N)=O)C(C)C` [Val^31→Cha] (H-AVSEIQLMHNLGKHLNSMRRVEWLRKKLQD[Cha]-NH2; N-terminus assumed), the CD helical residues in data set [1] (setting [2]) is 9. Further, the IC50 on PTHR-delNt (setting [2]) is 466 ± 298 nM.
As for `CC[C@H](C)[C@H](NC(=O)[C@H](CCC(=O)O)NC(=O)[C@H](CO)NC(=O)[C@@H](NC(=O)[C@H](C)N)C(C)C)C(=O)N[C@@H](CCC(N)=O)C(=O)N[C@@H](CC(C)C)C(=O)N[C@@H](CCSC)C(=O)N[C@@H](Cc1c[nH]cn1)C(=O)N[C@@H](CC(N)=O)C(=O)N[C@@H](CC(C)C)C(=O)NCC(=O)N[C@@H](CCCCN)C(=O)N[C@@H](Cc1c[nH]cn1)C(=O)N[C@@H](CC(C)C)C(=O)N[C@@H](CC(N)=O)C(=O)N[C@@H](CO)C(=O)N[C@@H](CCSC)C(=O)N[C@@H](CCCNC(=N)N)C(=O)N[C@@H](CCCNC(=N)N)C(=O)N[C@H](C(=O)N[C@@H](CCC(=O)O)C(=O)N[C@@H](Cc1c[nH]c2ccccc12)C(=O)N[C@@H](CC(C)C)C(=O)N[C@@H](CCCNC(=N)N)C(=O)N[C@@H](CCCCN)C(=O)N[C@@H](CCCCN)C(=O)N[C@@H](CC(C)C)C(=O)N[C@@H](CC1CCCCC1)C(=O)N[C@@H](CC(=O)O)C(=O)N[C@H](C(N)=O)C(C)C)C(C)C` [Gln^29→Cha] (H-AVSEIQLMHNLGKHLNSMRRVEWLRKKL[Cha]DV-NH2; N-terminus assumed), in data set [1] (setting [2]), the CD helical residues is 8. In addition, the IC50 on PTHR-delNt (setting [2]) amounted to 319 ± 57 nM.
Take “SVSEIQLMHNLGKHLNAMERVEWLRKKLQDV-NH2 [Ser^17→Ala]”: in data set [1] (hPTH(1-31)NH2 analogs), the CD helical residues was 10. Also, the IC50 on PTHR-delNt (hPTH(1-31)NH2 analogs) is 4580 nM.

Usually IC50 stands for the midpoint of a concentration-inhibition curve.

The values above are taken from patent publication US8143374B2, “Polypeptide derivatives of parathyroid hormone (PTH)” (The General Hospital Corporation, priority 2006, dated 2012).
